Calls of active or inactive are those of the source. The calls are words filed in the database; no cut-off is given here.
Legend:
[1] = Cytotoxicity against mouse BV-2 cells assessed as cell viability at 20 uM incubated for 24 hr by CCK-8 assay; format: toxicity, cell-based; conditions: read-out: Activity
BV-2 [2] = assay: Antineuroinflammatory activity in LPS-induced mouse BV-2 cells assessed as reduction in TNF-alpha level at 20 uM pretreated with LPS for 4 hrs followed by compound treatment for 24 hrs by ELISA analysis; format: functional, cell-based
BV-2 [3] = assay: Antineuroinflammatory activity in LPS-induced mouse BV-2 cells assessed as reduction in IL-1beta level at 20 uM pretreated with LPS for 4 hrs followed by compound treatment for 24 hrs by ELISA analysis; format: functional, cell-based
BV-2 [4] = assay: Antineuroinflammatory activity in LPS-induced mouse BV-2 cells assessed as reduction in IL-6 level at 20 uM pretreated with LPS for 4 hrs followed by compound treatment for 24 hrs by ELISA analysis; format: functional, cell-based
Mitochondrial membrane = assay: Induction of mitochondrial membrane potential in LPS-induced mouse BV-2 cells assessed as reduction in ratio of red to green fluorescence intensity at 20 uM pretreated with LPS for 4 hrs followed by compound treatment for 24 hrs by JC-1 staining based assay; format: cell membranes
BV-2 [5] = assay: Antineuroinflammatory activity in LPS-induced mouse BV-2 cells assessed as reduction in ROS level pretreated with LPS for 4 hrs followed by compound treatment for 24 hrs by ROS probe based microscopy; format: functional, cell-based; conditions: dose 20.0 µM

| Compound | viability at 24 h, 20 µM [1] | other results |
| --- | --- | --- |
| N=C(N)NCCCCNC(=O)Cc1cc(Cl)c(O)c(Cl)c1 | > 75% |  |
| CC(=O)CC(C)(C)n1cnc2c(=O)[nH]cnc21 | > 75% |  |
| CCC/C=C/C(=O)NCCCCNC(=N)N | > 75% |  |
| N=C(N)NCCCCNC(=O)Cc1c[nH]c2ccccc12 | > 75% |  |
| N=C(N)NCCCCn1cnc2ccccc2c1=O | > 75% |  |
| N=C(N)NCCCCNC(=O)c1c[nH]c2ccccc12 | > 75% |  |
| N=C(N)NCCCCNC(=O)Cc1ccc(O)c(Cl)c1 | > 75% |  |
| N=C(N)NCCCCNC(=O)c1cccnc1 | > 75% |  |
| N=C(N)NCCCCNC(=O)Cc1ccccc1 | > 75% |  |
| N=C(N)NCCCCNC(=O)c1ccc(O)cc1 | > 75% |  |
| N=C(N)NCCCCNC(=O)c1ccccc1 | > 75% |  |
| COc1cc(CC(=O)NCCCCNC(=N)N)ccc1O | > 75% | Activity (BV-2 [2]): Active; Activity (BV-2 [3]): Active; Activity (BV-2 [4]): Active; Activity (Mitochondrial membrane): Active |
| N=C(N)NCCCCNC(=O)Cc1ccc(O)cc1 | > 75% |  |
| COc1ccc2[nH]cc(CCNC(C)=O)c2c1 |  | Activity (BV-2 [5]): Dose-dependent-effect |

Reference: ChEMBL document CHEMBL6103632, “Seven New Guanidine Derivatives and One New Hypoxanthine Derivative Isolated from the Scorpion Buthus martensii and Potential Anti-Neuroinflammatory Activity” (J Nat Prod, 2025)
